According to patent US3961054A, “Combatting dandruff with mercapto quinoline N-oxides” (Ciba-Geigy Corporation, priority 1974, dated 1976):
Values after ≈ are worked out from the molar mass of the structure shown. Values joined by “and” are separate entries in the source; they are usually repeats but may differ in a detail not shown here. Identical values can stand only once. Counter-ions that a name gives are not always drawn. Like-named read-outs stand apart in the source and are kept apart here.

Columns and labels:
P. Ovale [1] = experiment: Microbiological activity against P. Ovale, agar serial dilution (Table 1); format: cell-based, P. Ovale (ATCC 14521); details: for MIC: 96 h, read-out: Minimum Inhibitory Concentration (MIC) against P. Ovale
Description: The microbiological activities of the zinc and sodium complexes of 2-mercapto-quinoline-N-oxide (MQNO) against P. Ovale were compared with the sodium and zinc salts of pyridinethione-N-oxide (PTO) and other conventional soapbacteriostats. P. Ovale is a microorganism associated with dandruff conditions.
Equal amounts of the respective compounds were dissolved in methyl cellosolve, dimethylformamide, or water, serially diluted in ten fold sequence and incorporated into plates of molten Agar. The plates were allowed to solidify, were then inoculated with P. Ovale (ATCC 14521), incubated at 27°C. for 4 days and inspected for growth.

Staph. aureus = experiment: Antimicrobial spectrum, MIC, Staph. aureus (Table 3); format: cell-based, Staph. aureus ATCC 6538; details: Staphylococcus aureus
Description: (§1) Equivalent amounts of ZnMQNO, NaMQNO, ZnPTO and NaPTO were solubilized in methyl cellosolve (PTO) and dimethyl formamide (MQNO). Ten fold serial dilutions were prepared employing additional solvent and equal aliquots pipetted into molten (50°C) agar support media. Nutrient Agar was employed for all bacteria and Mycological Agar was employed for the fungi and dermatophyte. After preparing pour plates for the bacteria and streaks for the fungi and dermatophyte, the plates were incubated (37°C and 27°C, respectively) and observed for growth.

Proteus vulgaris = experiment: Antimicrobial spectrum, MIC, Proteus vulgaris (Table 3); format: cell-based; details: ATCC9920, ATCC 9920, Nutrient Agar, 37°C, ten fold dilutions, read-out: Minimum Inhibitory Concentration, Proteus vulgaris
Description: as §1

Aspergillus oryzae = experiment: Antimicrobial spectrum, MIC, Aspergillus oryzae (Table 3); format: cell-based, Aspergillus oryzae ATCC 10196; details: for MIC: Aspergillus oryzae
Description: as §1

[2] = tested on: Gram-positive and negative bacteria, fungi and dermatophytes; experiment: Antimicrobial spectrum, overall (Example 8); format: cell-based; details: in words, from Table 3
Description: as §1

P. Ovale [3] = experiment: Substantivity/activity in calf skin, zone of inhibition against P. Ovale (Table 2); format: cell-based; set-up: unit not given here; details: 2% in shampoo, replicate plates 1-4, 27°C, 4 days
Source text: The substantivity/activity of the zinc complex of 2-mercapto-quinoline-N-oxide of the invention in calf-skin were compared with the zinc salt of pyridinethione-N-oxide in the following manner. ZnMQNO and ZnPTO were incorporated by blending on a 3-roll mill in amounts of 1% and 2% by weight into a non-bacteriostatic paste shampoo of the following composition.
Calf skin specially prepared by the method of Vinson IN VITRO TESTS FOR MEASURING ANTIBACTERIAL ACTIVITY OF TOILET SOAP AND DETERGENT BARS by L. J. Vinson, E. L. Ambye, A. G. Bennet, Journal of Pharmaceutical Sciences, Vol. 50, P. 10, October, 1961.
0.3 g of shampoo was applied in each instance to 12.5 sq. in. of calf skin (equivalent to […] of shampoo per 90.2 sq. in. of human scalp) and a rich lather worked up for 2 minutes. The calf skin was then rinsed in running tap water for 30 seconds with vigorous message to remove all lather. The moist skin was then given a second lather identical to the first and again rinsed as before. After air drying, the calf skins were cut into 2.1 cm discs and placed on agar inoculated with P. Ovale. After 4 days incubation at 27°C, the zones of inhibition size were recorded.

dandruff = details: in words; background; cited from earlier work
T. interdigitale = experiment: Antimicrobial spectrum, MIC, T. interdigitale (Table 3); format: cell-based, Trichophyton interdigitale ATCC 9533; details: Trichophyton interdigitale, ATCC9533, read-out: Minimum Inhibitory Concentration, T. interdigitale
Description: as §1

[4] = Relative solubility (statement in words); format: physicochemical; details: explains smaller zone size in agar
[5] = Pityrosporum ovale, agar, 27°C, 4 days

`Oc1ccc(Cl)cc1Sc1cc(Cl)ccc1O` [2,2'-dihydroxy-5.5'-dichlorodiphenyl monosulfide] gave an MIC (P. Ovale [1]) greater than 1000 µg/mL.
With “N-alkyl-dimethyl-benzyl ammonium chloride” the “Minimum Inhibitory Concentration (MIC) against P. Ovale” value (P. Ovale [1]; agar, 27°C, 4 days) was greater than 1000 PPM.
With `O=C(Nc1ccc(Cl)c(Cl)c1)c1cc(Cl)cc(Cl)c1O` [Tetrachloro salicyanilide] the “Minimum Inhibitory Concentration (MIC) against P. Ovale” value (P. Ovale [1]; agar, 27°C, 4 days) was 1000 PPM.
`Cc1cc(O)cc(C)c1Cl` [P-chloro-m-xylenol] showed an MIC (P. Ovale [1]; [5]) of 1000 µg/mL (≈ 6.39 mM).
For “m-alkyl-dimethyl-ethyl-benzyl ammonium chloride”, the “Minimum Inhibitory Concentration (MIC) against P. Ovale” value (P. Ovale [1]; agar, 27°C, 4 days) was greater than 1000 PPM.
In the case of `O=C(Nc1ccc(Cl)cc1)c1cc(Cl)cc(Cl)c1O` [Trichloro salicyanilide], the “Minimum Inhibitory Concentration (MIC) against P. Ovale” value (P. Ovale [1]; agar, 27°C, 4 days) is reported as greater than 1000 PPM.
With Undecen-1-ol the “Minimum Inhibitory Concentration (MIC) against P. Ovale” value (P. Ovale [1]; agar, 27°C, 4 days) was greater than 1000 PPM.
`[O-][n+]1c(S)ccc2ccccc21` [Na MQNO, Sodium Complex Of 2-Mercapto-Quinoline-N-Oxide] showed an MIC (P. Ovale [1]; [5]) of 50 to 60 µg/mL, an MIC (Staph. aureus; ATCC6538, ATCC 6538, Nutrient Agar, 37°C, ten fold dilutions, read-out: Minimum Inhibitory Concentration, Staph. aureus) of 0.1 µg/mL and an MIC (Proteus vulgaris) of 0.1 µg/mL. The MIC (Aspergillus oryzae; ATCC10196, ATCC 10196, Mycological Agar, 27°C, ten fold dilutions, read-out: Minimum Inhibitory Concentration, Aspergillus oryzae) was 10100 µg/mL.
In the case of `[O-][n+]1ccccc1[S-].[O-][n+]1ccccc1[S-].[Zn+2]` [Zn PTO, zinc salt of pyridinethione-N-oxide], the “Minimum Inhibitory Concentration (MIC) against P. Ovale” value (P. Ovale [1]; agar, 27°C, 4 days) is reported as 7-10 PPM, the antimicrobial spectrum [2] is reported as “broad-spectrum antimicrobial agents showing good activity at low concentrations against Gram-positive and negative bacteria, fungi and dermatophytes” and the “Zone of Inhibition Against P. Ovale - Calf Skin, 1 Application” value (P. Ovale [3]; listed as Zinc PTO) is reported as 4.5 and 4.0 and 5.0. The “Zone of Inhibition Against P. Ovale - Calf Skin, 2 Applications” value (P. Ovale [3]; listed as Zinc PTO) was 10.0 and 7.0 and 5.0 and the “Minimum Inhibitory Concentration, Aspergillus oryzae” value (Aspergillus oryzae; ATCC 10196, Mycological Agar, 27°C, ten fold dilutions) was 10 100 PPM.
In the case of `O=C(Nc1ccc(Br)cc1)c1cc(Br)cc(Br)c1O` [Tribromo salicyanilide], the “Minimum Inhibitory Concentration (MIC) against P. Ovale” value (P. Ovale [1]; agar, 27°C, 4 days) is reported as 1000 PPM.
With `Oc1c(Cl)cc(Cl)cc1Sc1cc(Cl)cc(Cl)c1O` [Thio bis(dichlorophenol)] the “Minimum Inhibitory Concentration (MIC) against P. Ovale” value (P. Ovale [1]; agar, 27°C, 4 days) was greater than 1000 PPM.
`Oc1c(I)cc(I)c2cccnc12` [Diiodohydroxyquinoline] showed an MIC (P. Ovale [1]; [5]) of 1000 µg/mL (≈ 2.52 mM).
In the case of `[O-][n+]1ccccc1S` [Na PTO, sodium salt of pyridinethione-N-oxide], the MIC (P. Ovale [1]) is reported as 7 to 10 µg/mL, the MIC (Staph. aureus; ATCC6538, read-out: Minimum Inhibitory Concentration, Staph. aureus) is reported as 0.1 µg/mL and the antimicrobial spectrum [2] is reported as “broad-spectrum antimicrobial agents showing good activity at low concentrations against Gram-positive and negative bacteria, fungi and dermatophytes”. For the same compound, the MIC (Aspergillus oryzae; ATCC10196, read-out: Minimum Inhibitory Concentration, Aspergillus oryzae) was 10100 µg/mL.
For `Sc1ccc2ccccc2n1` [2-mercaptoquinoline], the MIC (P. Ovale [1]; [5]) was greater than 1000 µg/mL.
`Oc1c(Cl)cc(Cl)c(Cl)c1Cc1c(O)c(Cl)cc(Cl)c1Cl` [Hexachlorophene] showed an MIC (P. Ovale [1]) greater than 1000 µg/mL.
For “N-alkyl-dimethyl-ethyl-benzyl ammonium cyclohexyl sulfamate”, the “Minimum Inhibitory Concentration (MIC) against P. Ovale” value (P. Ovale [1]; agar, 27°C, 4 days) was greater than 1000 PPM.
Compound `Sc1ccccn1` [2-mercaptopyridine] has an MIC (P. Ovale [1]; [5]) greater than 1000 µg/mL.
In the case of `O=C(Nc1ccc(Cl)cc1)Nc1ccc(Cl)c(Cl)c1` [Trichlorocarbanilide], the “Minimum Inhibitory Concentration (MIC) against P. Ovale” value (P. Ovale [1]; agar, 27°C, 4 days) is reported as greater than 1000 PPM.
For `[S]` [elemental sulfur], the “anti-dandruff activity (prior art agents)” value (dandruff) is listed as “extremely effective in the control of dandruff”.
With “Sodium salt of sulphosuccinate of undecylenic-monoalkylolamide” the “Minimum Inhibitory Concentration (MIC) against P. Ovale” value (P. Ovale [1]; agar, 27°C, 4 days) was greater than 1000 PPM.
`O=c1[nH]c2cc(Cl)c(Br)cc2o1` [5-chloro-6-bromobenzoxazo-linone] gave an MIC (P. Ovale [1]; [5]) of 1000 µg/mL (≈ 4.02 mM).
With `Oc1cccc2cccnc12` [8-Hydroxyquinoline] the MIC (P. Ovale [1]) was 100 µg/mL (≈ 0.689 mM).
In the case of `[O-][n+]1c(S)ccc2ccccc21.[Zn]` [Zn MQNO, Zinc 2-mercaptoquinoline-N-oxide], the MIC (T. interdigitale) is reported as 10100 µg/mL, the “solubility relative to ZnPTO” value [4] is reported as “less soluble than ZnPTO” and the “Zone of Inhibition Against P. Ovale - Calf Skin, 1 Application” value (P. Ovale [3]; listed as MONO) is reported as 0.5 and 1.5 and 1.0. For the same compound, the “Zone of Inhibition Against P. Ovale - Calf Skin, 2 Applications” value (P. Ovale [3]; listed as MONO) was 2.0 and 4.5 and 2.5.
Compound `C=CCCCCCCCCC(=O)O` [Undecylenic acid] has an MIC (P. Ovale [1]) of 1000 µg/mL (≈ 5.43 mM).
